Where two headings read alike, the source gives them in different places.
Biological target: T1, IKK2 (IKKβ) (Homo sapiens, UniProt O14920)
T1 construct: made in house; host or cells: baculovirus-infected insect cells (SF9)
T1 sequence (O14920 1-756): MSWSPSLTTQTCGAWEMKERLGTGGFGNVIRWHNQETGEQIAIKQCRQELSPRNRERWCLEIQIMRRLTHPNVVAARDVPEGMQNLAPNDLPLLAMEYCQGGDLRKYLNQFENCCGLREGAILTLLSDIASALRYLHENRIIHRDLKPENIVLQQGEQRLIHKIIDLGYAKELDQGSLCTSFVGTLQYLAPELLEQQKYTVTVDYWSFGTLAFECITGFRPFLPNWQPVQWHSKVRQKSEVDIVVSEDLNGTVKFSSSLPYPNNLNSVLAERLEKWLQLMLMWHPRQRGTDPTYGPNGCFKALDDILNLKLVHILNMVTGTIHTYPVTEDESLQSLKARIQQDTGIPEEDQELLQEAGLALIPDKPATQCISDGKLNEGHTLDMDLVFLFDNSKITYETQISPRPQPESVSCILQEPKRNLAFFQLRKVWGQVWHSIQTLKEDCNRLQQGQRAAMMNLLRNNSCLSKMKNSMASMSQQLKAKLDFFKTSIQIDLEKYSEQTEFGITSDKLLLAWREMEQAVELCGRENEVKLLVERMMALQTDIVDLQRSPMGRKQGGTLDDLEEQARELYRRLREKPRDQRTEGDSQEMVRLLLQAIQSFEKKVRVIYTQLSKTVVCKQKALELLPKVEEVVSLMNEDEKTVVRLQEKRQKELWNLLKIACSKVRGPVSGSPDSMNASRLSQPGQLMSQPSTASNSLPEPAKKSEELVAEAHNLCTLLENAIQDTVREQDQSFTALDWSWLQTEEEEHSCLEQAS
Experiment: IKK2 (IKKβ) resin enzyme assay
Type: biochemical
Excerpt: cDNAs of human IKK1 and IKK2 were amplified by reverse transcriptase-polymerase chain reaction from human placental RNA (Clonetech). hIKK1 was subcloned into pFastBac HTa (Life Technologies) and expressed as N-terminal His6-tagged fusion protein. The hIKK2 cDNA was amplified using a reverse oligonucleotide primer which incorporated the peptide sequence for a FLAG-epitope tag at the C-terminus of the IKK2 coding region (DYKDDDDKD). The hIKK2:FLAG cDNA was subcloned into the baculovirus vector pFastBac. The rhIKK2 ([…]) mutant was constructed in the same vector used for wild type rhIKK2 using a QuikChange™ mutagenesis kit (Stratagene). Viral stocks of each construct were used to infect insect cells grown in 40L suspension culture. […] Cell lysates were stored at −80° C. until purification of the recombinant proteins was undertaken as described below.
Isolation of rhIKK2 Homodimer
A 10 liter culture of baculovirus-expressing IKK2 tagged with FLAG peptide was centrifuged and the cell pellet (MOI=0.1 and I=72 hrs) was re-suspended in buffer A. These cells were microfluidized, and centrifuged at 100,000×g for 45 min. Supernatant was passed over a G-25 column equilibrated with Buffer A. Protein peak was collected and incubated with anti-FLAG affinity resin on a rotator overnight in buffer B. The resin was washed in batch with 10-15 bed volumes of buffer C. Washed resin was poured into a column and rhIKK2 homodimer was eluted using 5 bed volumes of buffer B containing FLAG peptide. 5 mM DTT, 0.1% NP-40 and BSA (concentrated to 0.1% in final amount) was added to the eluted enzyme before concentrating in using an Amicon membrane with a molecular weight cut-off of 30 kDa. Enzyme was aliquoted and stored at −80° C.
IKKβ kinase activity was measured using a biotinylated IκBα peptide (Gly-Leu-Lys-Lys-Glu-Arg-Leu-Leu-Asp-Asp-Arg-His-Asp-Ser32-Gly-Leu-Asp-Ser36-Met-Lys-Asp-Glu-Glu) (American Peptide Co.). […] contained 5 μM biotinylated IκBα peptide, 0.1 μCi/reaction [γ-^33P] ATP (Amersham) (about 1×10^5 cpm), 1 μM ATP (Sigma), 1 mM DTT (Sigma), 2 mM MgCl2 (Sigma), 2 mM MnCl2 (Sigma), 10 mM NaF (Sigma), 25 mM Hepes (Sigma) buffer, pH 7.6 and 20 μl enzyme solution and […] inhibitor in a final volume of 50 μl. After incubation at 25° C. for 30 min, 150 μl resin (Dowex anion-exchange resin AG1X8 200-400 mesh) in 900 mM formate, pH 3.0 was added to each well to stop the reaction. Resin was allowed to settle for one hour and 50 ul of supernatant was removed to a Micolite-2 flat bottom plate (Dynex). 150 μl of scintillation fluid (Microscint 40) (Packard) was added to each well. Incorporation of [γ-^33P] ATP was measured using a Top-Count NXT (Packard).

[1] = Table 2, read-out: IKK2 Resin Avg. IC50
[2] = Table 4, read-out: IKK2 Resin IC50
[3] = Table 3, read-out: IKK2 Resin IC50
[4] = Table 5, read-out: IKK2 Resin IC50

Row | Compound | IC50 [1] | IC50 [3] | also measured
1 | CC(=O)N1Cc2c(C(N)=O)nn(-c3ccc4c(c3)OCO4)c2-c2cc(NC(=O)c3ccncc3Cl)ccc21 [Example 22, 5-acetyl-1-(1,3-benzodioxol-5-yl)-8-[(3-chloroisonicotinoyl)amino]-4,5-dihydro-1H-pyrazolo[4,3-c]quinoline-3-carboxamide] | < 1000 nM | – | –
2 | NC(=O)c1nn(-c2cccc(F)c2)c2c1COc1ccc(NC(=O)c3cccnc3Cl)cc1-2 [Example 48, 8-{[(2-chloropyridin-3-yl)carbonyl]amino}-1-(3-fluorophenyl)-1,4-dihydrochromenol[4,3-c]pyrazole-3-carboxamide] | – | – | IC50 [2]: ≤ 1000 nM
3 | CC(=O)N1Cc2c(C(N)=O)nn(-c3ccc4c(c3)OCO4)c2-c2cc(NS(C)(=O)=O)ccc21 [Example 23, 5-acetyl-1-(1,3-benzodioxol-5-yl)-8-[(methylsulfonyl)amino]-4,5-dihydro-1H-pyrazolo[4,3-c]quinoline-3-carboxamide] | < 1000 nM | – | –
4 | CC(=O)N1Cc2c(C(N)=O)nn(-c3ccc4c(c3)OCO4)c2-c2cc(NC(=O)c3ccccc3Cl)ccc21 [Example 18, 5-acetyl-1-(1,3-benzodioxol-5-yl)-8-[(2-chlorobenzoyl)amino]-4,5-dihydro-1H-pyrazolo[4,3-c]quinoline-3-carboxamide] | ≤ 1000 nM | – | –
5 | NC(=O)c1nn(-c2ccc3c(c2)OCO3)c2c1COc1ccc(NC(=O)c3ccccc3Cl)cc1-2 [Example 34, 1-(1,3-benzodioxol-5-yl)-8-[(2-chlorobenzoyl)amino]-1,4-dihydrochromeno[4,3-c]pyrazole-3-carboxamide] | – | ≤ 1000 nM | –
6 | CSc1ccc(-n2nc(C(N)=O)c3c2-c2cc(NC(=O)c4ccccc4Cl)ccc2OC3)cc1 [Example 57] | – | – | IC50 [4]: ≥ 10000 nM
7 | NC(=O)c1nn(-c2ccc3c(c2)OCO3)c2c1COc1ccc(NC(=O)c3ccncc3Cl)cc1-2 [Example 32, 1-(1,3-benzodioxol-5-yl)-8-[(3-chloroisonicotinoyl)amino]-1,4-dihydrochromeno[4,3-c]pyrazole-3-carboxamide] | – | ≤ 1000 nM | –
8 | NC(=O)c1nn(-c2ccc3c(c2)OCO3)c2c1COc1ccc(NC(=O)c3cccc(Cl)c3Cl)cc1-2 [Example 45, 1-(1,3-benzodioxol-5-yl)-8-[(2,3-dichlorobenzoyl)amino]-1,4-dihydrochromenol[4,3-c]pyrazole-3-carboxamide] | – | ≥ 100000 nM | –
9 | CS(=O)(=O)c1ccc(-n2nc(C(N)=O)c3c2-c2cc(NC(=O)c4ccccc4Cl)ccc2OC3)cc1 [Example 54, 8-[(2-chlorobenzoyl)amino]-1-[4-(methylsulfonyl)phenyl]-1,4-dihydrochromeno[4,3-c]pyrazole-3-carboxamide] | – | – | IC50 [4]: ≤ 1000 nM
10 | NC(=O)c1nn(-c2ccc3c(c2)OCO3)c2c1COc1ccc(NC(=O)c3cc4c(cc3Cl)OCO4)cc1-2 [Example 31, 1-(1,3-benzodioxol-5-yl)-8-{[(6-chloro-1,3-benzodioxol-5-yl)carbonyl]amino}-1,4-dihydrochromeno[4,3-c]pyrazole-3-carboxamide] | – | ≤ 1000 nM | –
11 | CC(=O)N1Cc2c(C(N)=O)nn(-c3ccc(F)cc3)c2-c2cc(NS(C)(=O)=O)ccc21 [Example 25, 5-acetyl-1-(4-fluorophenyl)-8-[(methylsulfonyl)amino]-4,5-dihydro-1H-pyrazolo[4,3-c]quinoline-3-carboxamide] | < 1000 nM | – | –
12 | CC(=O)N1Cc2c(C(N)=O)nn(-c3ccc4c(c3)OCO4)c2-c2cc(N)ccc21 [Example 17, 5-acetyl-8-amino-1-(1,3-benzodioxol-5-yl)-4,5-dihydro-1H-pyrazolo[4,3-c]quinoline-3-carboxamide acetate] | ≤ 1000 nM | – | –
13 | NC(=O)c1nn(-c2ccc(F)cc2)c2c1COc1ccc(NC(=O)c3ccncc3Cl)cc1-2 [Example 53, 8-[(3-chloroisonicotinoyl)amino]-1-(4-fluorophenyl)-1,4-dihydrochromeno[4,3-c]pyrazole-3-carboxamide] | – | – | IC50 [2]: < 1000 nM
14 | NC(=O)c1nn(-c2ccc(F)cc2)c2c1COc1ccc(NC(=O)c3cccnc3Cl)cc1-2 [Example 47, 8-{[(2-chloropyridin-3-yl)carbonyl]amino}-1-(4-fluorophenyl)-1,4-dihydrochromenol[4,3-c]pyrazole-3-carboxamide] | – | – | IC50 [2]: ≤ 1000 nM
15 | C[S+]([O-])c1ccc(-n2nc(C(N)=O)c3c2-c2cc(NC(=O)c4ccccc4Cl)ccc2OC3)cc1 (stereo not shown) [Example 55, 8-[(2-chlorobenzoyl)amino]-1-[4-(methylsulfinyl)phenyl]-1,4-dihydrochromeno[4,3-c]pyrazole-3-carboxamide] | – | – | IC50 [4]: ≥ 1000 nM
16 | NC(=O)c1nn(-c2ccc3c(c2)OCO3)c2c1COc1ccc(NC(=O)c3cc(N)ccc3Cl)cc1-2 [Example 33, 8-[(5-amino-2-chlorobenzoyl)amino]-1-(1,3-benzodioxol-5-yl)-1,4-dihydrochromeno[4,3-c]pyrazole-3-carboxamide] | – | ≤ 1000 nM | –

From US7211597B2, “Substituted pyrazolyl compounds for the treatment of inflammation” (priority 2001, dated 2007)
